Columns and labels:
human CSNK1D = biological target: T1, human CSNK1D (Homo sapiens, UniProt P48730); assay: Whole Cell nBRET CSNK1D Binding Assay; conditions: living CHO cells stably expressing human CSNK1D tagged with nanoluciferase; NanoBret tracer 130 nM; 2 hours at 37 C
T1 construct: expressed in transfected cells

[1] = biological target: T2, human recombinant GST cleaved CSNK1D (Homo sapiens, UniProt P48730); assay: Purified Enzyme Assay (ADP-Glo CSNK1D Kinase Assay); assay type: biochemical; conditions: 2 nM CSNK1D; peptide substrate 150 μM; ATP 20 μM; 45 minutes at room temperature
T2 construct: GST (cleaved yes); purchased University of Dundee clone DU 19064
Method in brief: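 GST-cleaved human recombinant CSNK1D phosphorylates peptide PLSRTL-pS-VASLPGL with ATP; compounds added in dose-response, 45 min at room temperature. ADP formed measured by ADP-Glo luminescence and converted to percent activity.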

T2 sequence (P48730 whole entry): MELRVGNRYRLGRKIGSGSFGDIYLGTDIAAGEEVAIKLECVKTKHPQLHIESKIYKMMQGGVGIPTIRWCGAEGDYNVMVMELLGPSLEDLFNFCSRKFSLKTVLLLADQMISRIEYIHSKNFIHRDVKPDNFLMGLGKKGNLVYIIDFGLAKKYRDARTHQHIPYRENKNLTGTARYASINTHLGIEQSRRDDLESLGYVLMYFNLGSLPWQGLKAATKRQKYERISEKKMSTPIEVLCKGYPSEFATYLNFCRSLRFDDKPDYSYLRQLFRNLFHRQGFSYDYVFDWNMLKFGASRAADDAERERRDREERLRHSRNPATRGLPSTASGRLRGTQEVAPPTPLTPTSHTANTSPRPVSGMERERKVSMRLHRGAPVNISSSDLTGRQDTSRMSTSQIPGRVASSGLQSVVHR
T1 sequence (P48730 whole entry): as above

Row | Compound | IC50 (human CSNK1D) | IC50 [1]
1 | COCC1CCc2c(-c3cc(C)nc4[nH]ncc34)c(-c3ccc(F)cn3)nn2C1 (single isomer, unassigned) [Example 297, (*R)-4-[2-(5-Fluoro-2-pyridyl)-6-(methoxymethyl)-4,5,6,7-tetrahydropyrazolo[1,5-a]pyridin-3-yl]-6-methyl-1H-pyrazolo[3,4-b]pyridine] | 297 nM | 12 nM
2 | COCC1(F)CCc2c(-c3cc(C(F)F)nc4[nH]ncc34)c(-c3ccc(F)cn3)nn2C1 (single isomer, unassigned) [Example 306, (*S)-6-(Difluoromethyl)-4-[6-fluoro-2-(5-fluoro-2-pyridyl)-6-(methoxymethyl)-5,7-dihydro-4H-pyrazolo[1,5-a]pyridin-3-yl]-1H-pyrazolo[3,4-b]pyridine] | 68 nM | 8 nM
3 | COCC1(C)CCc2c(-c3cc(C)nc4[nH]ncc34)c(-c3ccc(F)cn3)nn2C1 (single isomer, unassigned) [Example 56, (*R)-4-(2-(S-Fluoropyridin-2-yl)-6-(methoxymethyl)-6-methyl-4,5,6,7-tetrahydropyrazolo[1,5-a]pyridin-3-yl)-6-methyl-1H-pyrazolo[3,4-b]pyridine] | 63 nM | 3 nM
4 | Fc1ccc(-c2nn3c(c2-c2c(F)cnc4[nH]ncc24)C[C@@H]2C[C@@H]23)nc1 [Example 272, (4aS,5aS)-3-(5-Fluoro-1H-pyrazolo[3,4-b]pyridin-4-yl)-2-(5-fluoropyridin-2-yl)-4,4a,5,5a-tetrahydrocyclopropa[4,5]pyrrolo[1,2-b]pyrazole] | 71 nM | 2 nM
5 | Fc1ccc(-c2nn3c(c2-c2ccnc4[nH]ncc24)[C@H](Cl)C[C@]2(C3)CC2(F)F)nc1 (single isomer, unassigned) [Example 338, (1*S,4′*R)-4′-Chloro-2,2-difluoro-2′-(5-fluoropyridin-2-yl)-3′-(1H-pyrazolo[3,4-b]pyridin-4-yl)-4′,5′-dihydro-7′H-spiro[cyclopropane-1,6′-pyrazolo[1,5-a]pyridine]] | 72 nM | 5 nM
6 | C[C@@H]1COCc2c(-c3ccnc4[nH]ncc34)c(-c3ccc(F)cc3)nn21 (single isomer, unassigned) [Example 92, (*R)-2-(4-Fluorophenyl)-7-methyl-3-(1H-pyrazolo[3,4-b]pyridin-4-yl)-6,7-dihydro-4H-pyrazolo[5,1-c][1,4]oxazine] | 100 nM | 4 nM
7 | C[C@@H]1CCc2c(-c3ccnc4[nH]ncc34)c(-c3ccc(F)cn3)nn21 [Example 20, 4-[(6R)-2-(5-Fluoro-2-pyridyl)-6-methyl-5,6-dihydro-4H-pyrrolo[1,2-b]pyrazol-3-yl]-1H-pyrazolo[3,4-b]pyridine] | 411 nM | 20 nM
8 | CC1(C)Cn2nc(-c3ccc(F)cn3)c(-c3ccn4ncnc4c3)c2CO1 [Example 385, 3-([1,2,4]Triazolo[1,5-a]pyridin-7-yl)-2-(5-fluoropyridin-2-yl)-6,6-dimethyl-6,7-dihydro-4H-pyrazolo[5,1-c][1,4]oxazine] | 1570 nM | 50 nM
9 | Cc1cc(-c2c(-c3ccc(F)cn3)nn3c2CO[C@H](C)C3)c2cn[nH]c2n1 (single isomer, unassigned) [Example 87, (*R)-2-(5-Fluoro-2-pyridyl)-6-methyl-3-(6-methyl-1H-pyrazolo[3,4-b]pyridin-4-yl)-6,7-dihydro-4H-pyrazolo[5,1-c][1,4]oxazine] | 162 nM | 13 nM
10 | Cc1cc(-c2c(-c3ccc(F)cn3)nn3c2CO[C@@H](C)C3)c2cn[nH]c2n1 (single isomer, unassigned) [Example 89] | 275 nM | 9 nM
11 | Fc1ccc(-c2nn3c(c2-c2ccnc4[nH]ncc24)COC(C(F)(F)F)C3)nc1 (centres unmarked) [Example 102, 2-(5-Fluoropyridin-2-yl)-3-(1H-pyrazolo[3,4-b]pyridin-4-yl)-6-(trifluoromethyl)-6,7-dihydro-4H-pyrazolo[5,1-c][1,4]oxazine] | 844 nM | 39 nM
12 | [2H]C([2H])([2H])C1(C([2H])([2H])[2H])Cn2nc(-c3ccc(F)cn3)c(-c3ccn4nccc4c3)c2CO1 [Example 396, 2-(5-Fluoropyridin-2-yl)-6,6-bis(methyl-d3)-3-(pyrazolo[1,5-a]pyridin-5-yl)-6,7-dihydro-4H-pyrazolo[5,1-c][1,4]oxazine] | 292 nM | 22 nM
13 | Cn1cc2nccc(-c3c(-c4ccc(F)cn4)nn4c3COC(C)(C)C4)c2n1 [Example 138, 2-(5-Fluoropyridin-2-yl)-6,6-dimethyl-3-(2-methyl-2H-pyrazolo[4,3-b]pyridin-7-yl)-6,7-dihydro-4H-pyrazolo[5,1-c][1,4]oxazine] | 999 nM | 106 nM
14 | Fc1ccc(-c2nn3c(c2-c2ccncc2)COCC3)nc1 [Example 74, 2-(5-Fluoro-2-pyridyl)-3-(4-pyridyl)-6,7-dihydro-4H-pyrazolo[5,1-c][1,4]oxazine] | 2410 nM | 205 nM

These reach a lower IC50 (human CSNK1D). Values come first.

Row | IC50 (human CSNK1D) | IC50 [1] | Compound
15 | 19 nM | 2 nM | Cc1cc(-c2c(-c3ccc(F)cn3)nn3c2C[C@@H]2C[C@@H]23)c2cn[nH]c2n1 [Example 28, (4aS,5aS)-2-(5-Fluoropyridin-2-yl)-3-(6-methyl-1H-pyrazolo[3,4-b]pyridin-4-yl)-4,4a,5,5a-tetrahydrocyclopropa[4,5]pyrrolo[1,2-b]pyrazole]
16 | 39 nM | 4 nM | CC1CCCc2c(-c3ccnc4[nH]ncc34)c(-c3ccc(F)cc3)nn21 (single isomer, unassigned) [Example 39, (*R)-4-[2-(4-Fluorophenyl)-7-methyl-4,5,6,7-tetrahydropyrazolo[1,5-a]pyridin-3-yl]-1H-pyrazolo[3,4-b]pyridine]
17 | 12 nM | 1 nM | Cc1nc2[nH]ncc2c(-c2c(-c3ccc(F)cn3)nn3c2CC[C@]2(C3)CC2(F)F)c1F (single isomer, unassigned) [Example 332, (*R)-2,2-Difluoro-3′-(5-fluoro-6-methyl-1H-pyrazolo[3,4-b]pyridin-4-yl)-2′-(5-fluoropyridin-2-yl)-4′,5′-dihydro-7′H-spiro[cyclopropane-1,6′-pyrazolo[1,5-a]pyridine]]
18 | 22 nM | 1 nM | Cc1cc(-c2c(-c3ccc(F)cc3)nn3c2CCC3)c2cn[nH]c2n1 [Example 5, 4-(2-(4-Fluorophenyl)-5,6-dihydro-4H-pyrrolo[1,2-b]pyrazol-3-yl)-6-methyl-1H-pyrazolo[3,4-b]pyridine]
19 | 12 nM | 1 nM | C[C@H]1CCc2c(-c3ccnc4[nH]ncc34)c(-c3ccc(F)cc3)nn21 [Example 15, 4-[(6S)-2-(4-Fluorophenyl)-6-methyl-5,6-dihydro-4H-pyrrolo[1,2-b]pyrazol-3-yl]-1H-pyrazolo[3,4-b]pyridine]
20 | 55 nM | 4 nM | Cc1cc(-c2c(-c3ccc(F)cn3)nn3c2C2CC2C3)c2cn[nH]c2n1 (racemic) [Example 24, 2-(5-Fluoropyridin-2-yl)-3-(6-methyl-1H-pyrazolo[3,4-b]pyridin-4-yl)-3b,4,4a,5-tetrahydrocyclopropa[3,4]pyrrolo[1,2-b]pyrazole]
21 | 24 nM | 12 nM | Fc1ccc(-c2nn3c(c2-c2ccn4nccc4c2)OCC2(CC2)C3)cc1 [Example 466, 2′-(4-Fluorophenyl)-3′-(pyrazolo[1,5-a]pyridin-5-yl)-5′H,7′H-spiro[cyclopropane-1,6′-pyrazolo[5,1-b][1,3]oxazine]]
22 | 29 nM | 2 nM | Cc1nc2[nH]ncc2c(-c2c(-c3ccc(F)cn3)nn3c2C[C@@H]2C[C@@H]23)c1F [Example 273, (4aS,5aS)-3-(5-Fluoro-6-methyl-1H-pyrazolo[3,4-b]pyridin-4-yl)-2-(5-fluoropyridin-2-yl)-4,4a,5,5a-tetrahydrocyclopropa[4,5]pyrrolo[1,2-b]pyrazole]
23 | 55 nM | 3 nM | Fc1ccc(-c2nn3c(c2-c2ccnc4[nH]ncc24)C2CCC3CC2)nc1 [Example 65, 2-(5-Fluoropyridin-2-yl)-3-(1H-pyrazolo[3,4-b]pyridin-4-yl)-4,5,6,7-tetrahydro-4,7-ethanopyrazolo[1,5-a]pyridine]
24 | 56 nM | 5 nM | Cc1nc2[nH]nc(C)c2c(-c2c(-c3ccc(F)cn3)nn3c2C[C@@H]2C[C@@H]23)c1F [Example 274, (4aS,5aS)-3-(5-Fluoro-3,6-dimethyl-1H-pyrazolo[3,4-b]pyridin-4-yl)-2-(5-fluoropyridin-2-yl)-4,4a,5,5a-tetrahydrocyclopropa[4,5]pyrrolo[1,2-b]pyrazole]
25 | 1 nM | 1 nM | Fc1ccc(-c2nn3c(c2-c2ccnc4[nH]ncc24)OCC2(C3)CC2(F)F)cc1 (single isomer, unassigned) [Example 476, (*S)-2,2-Difluoro-2′-(4-fluorophenyl)-3′-1H-pyrazolo[3,4-b]pyridin-4-yl)-5′H,7′H-spiro[cyclopropane-1,6′-pyrazolo[5,1-b][1,3]oxazine]]
26 | 12 nM | 1 nM | Fc1ccc(-c2nn3c(c2-c2ccnc4[nH]ncc24)C2CCC3CC2)cc1 [Example 64, 2-(4-Fluorophenyl)-3-(1H-pyrazolo[3,4-b]pyridin-4-yl)-4,5,6,7-tetrahydro-4,7-ethanopyrazolo[1,5-a]pyridine]
27 | 23 nM | 3 nM | CCC(=O)Nc1cc(-c2c(-c3ccc(F)cn3)nn3c2OCC(C)C3)ccn1 (centres unmarked) [Example 442, N-(4-(2-(5-Fluoropyridin-2-yl)-6-methyl-6,7-dihydro-5H-pyrazolo[5,1-b][1,3]oxazin-3-yl)pyridin-2-yl)propionamide]
28 | 40 nM | 2 nM | CC1COc2c(-c3ccnc4[nH]ncc34)c(-c3ccc(F)cn3)nn2C1 (centres unmarked) [Example 196, 2-(5-Fluoropyridin-2-yl)-6-methyl-3-(1H-pyrazolo[3,4-b]pyridin-4-yl)-6,7-dihydro-5H-pyrazolo[5,1-b][1,3]oxazine]

Reference: patent publication US20230339970A1, “CASEIN KINASE 1 DELTA MODULATORS” (priority 2020, published 2023)
